Laboratory results as given in patent US12568972B2, “Pyridazinol compounds and derivatives, preparation methods, herbicidal compositions and applications thereof” (Qingdao Kingagroot Chemical Compound Co., Ltd., priority 2018, dated 2026).

What was measured:
Assay in all cases: Post-emergence test, weed control effect
Format in all cases: in vivo
Amaranthus retroflexus = details: after 3 weeks
Method in brief: (§1)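 Scores use a 0 (no effect) to 10 (dead) scale of fresh-weight inhibition, assessed 3 weeks after spraying. Treatment was at the 2-3 leaf stage, 2-3 weeks post-sowing, using acetone/Tween-80/water solutions with 80% vegetable oil methyl ester synergist at 1500 g/ha.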

Chenopodiaceae = details: after 3 weeks; for inhibition at 300 g/ha: 504 h, fresh weight inhibition, read-out: activity level of harmful plant destruction (growth inhibition rate), Chenopodiaceae
Method in brief: as §1

Echinochloa crus-galli = details: 504 h, Dose 300 g/ha, after 3 weeks, fresh weight inhibition, read-out: activity level of harmful plant destruction (growth inhibition rate), Echinochloa crus-galli
Method in brief: as §1

Galium aparine = details: 504 h, Dose 300 g/ha, after 3 weeks, fresh weight inhibition, read-out: activity level of harmful plant destruction (growth inhibition rate), Galium aparine
Method in brief: as §1

Rorippa indica = details: after 3 weeks; for inhibition at 300 g/ha: Rorippa indica, 504 h, fresh weight inhibition, read-out: activity level of harmful plant destruction (growth inhibition rate), Rorippa indica
Method in brief: as §1

Setaria viridis = details: 504 h, Dose 300 g/ha, after 3 weeks, fresh weight inhibition, read-out: activity level of harmful plant destruction (growth inhibition rate), Setaria viridis
Method in brief: as §1

Veronica polita = details: after 3 weeks; for inhibition at 300 g/ha: Veronica polita, 504 h, fresh weight inhibition, read-out: activity level of harmful plant destruction (growth inhibition rate), Veronica polita
Method in brief: as §1

Structure (SMILES)	weed control effect (activity level), Amaranthus retroflexus (Amaranthus retroflexus; dose 1000 g/ha)	inhibition at 300 g/ha (Chenopodiaceae) [%]	weed control effect (activity level), Chenopodiaceae (Chenopodiaceae; dose 1000 g/ha)	inhibition at 300 g/ha (Echinochloa crus-galli) [%]	inhibition at 300 g/ha (Galium aparine) [%]	inhibition at 300 g/ha (Rorippa indica) [%]	weed control effect (activity level), Rorippa indica (Rorippa indica; dose 1000 g/ha)	inhibition at 300 g/ha (Setaria viridis) [%]	inhibition at 300 g/ha (Veronica polita) [%]	weed control effect (activity level), Veronica polita (Veronica polita; dose 1000 g/ha)	weed control effect (activity level), Amaranthus retroflexus (Amaranthus retroflexus; Dose 3000 g/ha)	weed control effect (activity level), Chenopodiaceae (Chenopodiaceae; Dose 3000 g/ha)	weed control effect (activity level), Rorippa indica (Rorippa indica; Dose 3000 g/ha)	weed control effect (activity level), Veronica polita (Veronica polita; Dose 3000 g/ha)
Oc1cc(C(F)(F)F)nnc1-c1cc(F)cc(F)c1 [Compound 35]	10	100	10	100	90 to 100	100	10	100	100	10				
Oc1cc(C(F)(F)F)nnc1-c1ccc(F)cc1 [Compound 32]	10	100	10	100	100	100	10	100	100	10				
Cc1cc(-c2nnc(C(F)(F)F)cc2O)n(C)n1 [Compound 779]		100		100	100	100		100	100		10	10	10	10
